According to BindingDB's records for doi:10.1021/jm300025r (Astrazeneca, 2012):

Columns and labels:
[1] = Inhibition of CHK1 in human HT29 cells assessed as check point abrogation
[2] = Inhibition of CHK1 in human HT29 cells assessed as abrogation of camptothecin induced check point

N#Cc1cccc(-c2cc(NC(N)=O)c(C(=O)N[C@H]3CCCNC3)s2)c1
EC50 [1]: 1900 nM
EC50 [2]: 40 nM

N#Cc1cccc(-c2cc(C(=O)N[C@H]3CCCNC3)c(NC(N)=O)s2)c1
EC50 [1]: > 13000 nM
EC50 [2]: 940 nM

N#Cc1ccc(-c2cc(NC(N)=O)c(C(=O)N[C@H]3CCCNC3)s2)cc1
EC50 [1]: 600 nM
EC50 [2]: 30 nM

NC(=O)Nc1cc(-c2ccc(Cl)c(Cl)c2)sc1C(=O)N[C@H]1CCCNC1
EC50 [1]: 5800 nM
EC50 [2]: 200 nM

NC(=O)Nc1sc(-c2ccc(Cl)c(Cl)c2)cc1C(=O)N[C@H]1CCCNC1
EC50 [1]: 5700 nM
EC50 [2]: 150 nM

NC(=O)Nc1cc(-c2ccc(F)cc2F)sc1C(=O)N[C@H]1CCCNC1
EC50 [1]: 1100 nM
EC50 [2]: 20 nM

NC(=O)Nc1sc(-c2ccc(F)cc2F)cc1C(=O)N[C@H]1CCCNC1
EC50 [1]: 1400 nM
EC50 [2]: 190 nM

NC(=O)Nc1cc(-c2cccc(F)c2F)sc1C(=O)N[C@H]1CCCNC1
EC50 [1]: 1500 nM
EC50 [2]: 60 nM

NC(=O)Nc1cc(-c2cc(F)cc(F)c2)sc1C(=O)N[C@H]1CCCNC1
EC50 [1]: 2500 nM
EC50 [2]: 60 nM

NC(=O)Nc1sc(-c2cc(F)cc(F)c2)cc1C(=O)N[C@H]1CCCNC1
EC50 [1]: 1500 nM
EC50 [2]: 30 nM

NC(=O)Nc1cc(-c2cccc(Cl)c2)sc1C(=O)N[C@H]1CCCNC1
EC50 [1]: 700 nM
EC50 [2]: 10 nM

NC(=O)Nc1cc(-c2ccc(F)cc2)sc1C(=O)N[C@H]1CCCNC1
EC50 [1]: 13000 nM
EC50 [2]: 20 nM

NC(=O)Nc1cc(-c2ccccc2F)sc1C(=O)N[C@H]1CCCNC1
EC50 [1]: 2200 nM
EC50 [2]: 20 nM

NC(=O)Nc1cc(-c2ccccc2)sc1C(=O)N[C@H]1CCCNC1
EC50 [1]: 590 nM
EC50 [2]: 20 nM

NC(=O)Nc1sc(-c2cccc(F)c2F)cc1C(=O)N[C@H]1CCCNC1
EC50 [1]: 1800 nM
EC50 [2]: 100 nM

NC(=O)Nc1sc(-c2ccccc2F)cc1C(=O)N[C@H]1CCCNC1 [1-(3-((S)-piperidin-3-ylcarbamoyl)-5-(2-fluorophenyl)thiophen-2-yl)urea]
EC50 [1]: 1060 nM
EC50 [2]: 80 nM

NC(=O)Nc1sc(-c2cccc(Cl)c2)cc1C(=O)N[C@H]1CCCNC1 [1-(3-((S)-piperidin-3-ylcarbamoyl)-5-(3-chlorophenyl)thiophen-2-yl)urea]
EC50 [1]: 1200 nM
EC50 [2]: 40 nM

NC(=O)Nc1sc(-c2cccc(F)c2)cc1C(=O)N[C@H]1CCCNC1 [1-(3-((S)-piperidin-3-ylcarbamoyl)-5-(3-fluorophenyl)thiophen-2-yl)urea]
EC50 [1]: 840 nM
EC50 [2]: 20 nM

N#Cc1ccc(-c2cc(C(=O)N[C@H]3CCCNC3)c(NC(N)=O)s2)cc1 [(S)-1-(5-(4-cyanophenyl)-3-(piperidin-3-ylcarbamoyl)thiophen-2-yl)urea]
EC50 [1]: 1700 nM
EC50 [2]: 8 nM

NC(=O)Nc1sc(-c2ccc(F)cc2)cc1C(=O)N[C@H]1CCCNC1 [(S)-1-(5-(4-fluorophenyl)-3-(piperidin-3-ylcarbamoyl)thiophen-2-yl)urea]
EC50 [1]: 600 nM
EC50 [2]: 30 nM
